Source: paper PMC5196007 (Journal of pharmaceutical and biomedical analysis, 2016)
Where two headings read alike, the source gives them in different places.

Experiments:
[1] = Stability of analytes in whole blood samples; format: in vitro ADME, rat; settings: n = 6
CE-1 = settings: with alcohol co-administration, cited from earlier work
[2] = Pharmacokinetic study with co-administration of cocaine and alcohol in rats; format: in vivo, Male Sprague–Darley rats; settings: 60 mg/kg cocaine IP, 30 min after 1 g/kg alcohol or saline IP, both groups
[3] = tested on: butyrylcholinesterase (BChE) and liver carboxyesterase-2 (CE-2); settings: in humans; cited from earlier work
[4] = Bench top (4 hours, room temperature), high concentration 190–320 ng/ml (1 µM)
[5] = Bench top (4 hours, room temperature), low concentration 1.9–3.2 ng/ml (0.01 µM)
[6] = Bench top (4 hours, room temperature), medium concentration 95–160 ng/ml (0.5 µM)
[7] = Freeze-thaw (4 cycles), high concentration 190–320 ng/ml (1 µM)
[8] = Freeze-thaw (4 cycles), low concentration 1.9–3.2 ng/ml (0.01 µM)
[9] = Freeze-thaw (4 cycles), medium concentration 95–160 ng/ml (0.5 µM)
[10] = Long-term (−70°C, 4 months), high concentration 190–320 ng/ml (1 µM)
[11] = Long-term (−70°C, 4 months), low concentration 1.9–3.2 ng/ml (0.01 µM)
[12] = Long-term (−70°C, 4 months), medium concentration 95–160 ng/ml (0.5 µM)

Structure (SMILES)	Stability Bias (%) [1, 4]	Stability Bias (%) [1, 5]	Stability Bias (%) [1, 6]	Stability Bias (%) [1, 7]	Stability Bias (%) [1, 8]	Stability Bias (%) [1, 9]	Stability Bias (%) [1, 10]	Stability Bias (%) [1, 11]	Stability Bias (%) [1, 12]	fraction of cocaine converted to cocaethylene through transesterification (CE-1; intravenous cocaine)	fraction of cocaine converted to cocaethylene through transesterification (CE-1; oral cocaine)	fraction of cocaine converted to cocaethylene through transesterification (CE-1; smoked cocaine)	highest blood concentration [2]	time of highest blood concentration after the injection of cocaine [2]	fraction of cocaine hydrolyzed to ecgonine methyl ester (EME) [3]
CN1[C@H]2CC[C@@H]1[C@@H](C(=O)O)[C@@H](OC(=O)c1ccccc1)C2 [BE, benzoylecgonine]	1.7%	−0.5%	0.7%	3.4%	−0.9%	5.5%	3.8%	−1.4%	2.2%	–	–	–	–	–	–
CCOC(=O)[C@@H]1C2CCC(C[C@@H]1OC(=O)c1ccccc1)N2C (stereo partly drawn) [Cocaethylene, cocaethylene]	0.2%	1.7%	−2.1%	−4.1%	0.7%	−3.7%	−0.6%	3.7%	−1.8%	–	–	–	–	–	–
COC(=O)[C@H]1[C@@H](OC(=O)c2ccccc2)C[C@@H]2CC[C@H]1N2C [Cocaine]	−6.7%	2.3%	0.3%	−4.7%	2.8%	−0.7%	−3.1%	−0.4%	3.1%	~ 24%	~ 34%	~ 18%	~ 2400 ng/ml	20 min	approximately 40%
CCOC(=O)[C@@H]1[C@H]2CC[C@@H](C[C@@H]1O)N2C [EEE, ecgonine ethyl ester]	6.8%	1.2%	−4.4%	9.4%	−3.2%	−9.3%	−5.2%	−2.2%	−5.2%	–	–	–	–	–	–
COC(=O)[C@@H]1[C@H]2CC[C@@H](C[C@@H]1O)N2C [EME, ecgonine methyl ester]	0.3%	−9.6%	5.9%	4.0%	2.1%	4.2%	3.5%	−3.1%	6.3%	–	–	–	–	–	–
CCOC(=O)[C@H]1[C@@H](O)C[C@@H]2CC[C@H]1N2 [NEEE, norecgonine ethyl ester]	3.7%	1.4%	2.4%	6.5%	1.2%	3.3%	−11.9%	−1.3%	−0.2%	–	–	–	–	–	–
COC(=O)[C@H]1[C@@H](O)C[C@@H]2CC[C@H]1N2 [NEME, norecgonine methyl ester]	−2.2%	−14.3%	−1.5%	0.1%	−12.8%	−5.4%	−8.7%	−13.0%	−1.7%	–	–	–	–	–	–
CCOC(=O)[C@H]1[C@@H](OC(=O)c2ccccc2)C[C@@H]2CC[C@H]1N2 [Norcocaethylene, norcocaethylene]	−2.2%	−0.2%	−0.9%	−6.4%	0.1%	−4.4%	2.8%	−1.0%	−1.3%	–	–	–	–	–	–
COC(=O)[C@H]1[C@@H](OC(=O)c2ccccc2)C[C@@H]2CC[C@H]1N2 [Norcocaine, norcocaine]	0.6%	−1.1%	3.5%	−1.2%	−1.0%	−0.2%	−1.4%	−2.9%	2.2%	–	–	–	–	–	–
